Test results taken from patent US20130064821A1, “METHODS AND COMPOSITIONS FOR TREATING PROSTATE CANCER” (priority 2007, published 2013).

Key:
[1] = tested on: LNCaP cells, secreted PSA; assay: PSA production and secretion study in LNCaP cells (Example 6, PSA ELISA); type: cell-based, human; settings: 0.1 nM DHT, 120 hours, versus 5% CSS media alone
Description: A human hormone sensitive prostate cancer cell line, LNCaP (ATCC), was exposed to a polypeptide as described in Example 1. The effects of the polypeptide on the production and secretion of the prostate specific antigen, PSA, was then assessed.
The human prostate cancer cell line, LNCaP was obtained from American Type Tissue Collection (ATCC) and was routinely cultured in growth medium containing phenol red RPMI 1640 (Invitrogen, Auckland, New Zealand) supplemented with 10% fetal bovine serum (FBS, 15 GIBCO) and 1% antibiotic/antimycotic mixture (Invitrogen, Auckland, New Zealand). Cells were maintained at 37° C. in 5% CO2. Dilutions were made for the polypeptide (20 ng/ml) in 5% charcoal strip serum (CSS, HyClone) for in vitro experiments.
3×10^3 LNCaP cells were plated per well in quadruplicate in a Falcon 96-well plate and allowed to attach overnight at 5% CO2/37° C. in growth medium (as indicated above). The medium was replaced with fresh complete growth medium after 36 hours. […] After 120 hours in culture, cell culture media was collected from each well and PSA reading was measured in duplicate for each well. Human PSA was measured according to the manufacturers methodology using the PSA ELISA from Diagnostic Systems Laboratories (cat number: DSL-10-9700).
Data are presented as means unless otherwise indicated. Error bars represent the 95% confidence intervals.

[2] = tested on: LNCaP cells, secreted PSA; assay: PSA production and secretion study in LNCaP cells with T and DHT (Example 7, PSA ELISA); type: cell-based, human; settings: 0.1 nM androgen, 120 hours, versus 5% CSS media alone, mean of 6 wells
Description: The effects of the polypeptide on the production and secretion of the prostate specific antigen, PSA, was then assessed.
The human prostate cancer cell line, LNCaP was obtained from American Type Tissue Collection (ATCC) and was routinely cultured in growth medium containing phenol red RPMI 1640 (Invitrogen, Auckland, New Zealand) supplemented with 10% fetal bovine serum (FBS, GIBCO) and 1% antibiotic/antimycotic mixture (Invitrogen, Auckland, New Zealand). Cells were maintained at 37° C. in 5% CO2. Dilutions were made for the polypeptide (20 ng/ml) in 5% charcoal strip serum (CSS, HyClone) for in vitro experiments.
3×10^3 LNCaP cells were plated per well in quadruplicate in a Falcon 96-well plate and allowed to attach overnight at 5% CO2/37° C. in growth medium (as indicated above). The medium was replaced with fresh complete growth medium after 36 hours. […] After 120 hours in culture, cell culture media was collected from each well and a PSA reading was measured in duplicate for each well. Human PSA was measured according to the manufacturers methodology using the PSA ELISA from Diagnostic Systems Laboratories (Cat number: DSL-10-9700).
Data are presented as means unless otherwise indicated.

[3] = target: T1, sex hormone binding globulin (SHBG) (Homo sapiens, UniProt P04278); settings: serum, men; cited from earlier work
T1 sequence (P04278 30-402): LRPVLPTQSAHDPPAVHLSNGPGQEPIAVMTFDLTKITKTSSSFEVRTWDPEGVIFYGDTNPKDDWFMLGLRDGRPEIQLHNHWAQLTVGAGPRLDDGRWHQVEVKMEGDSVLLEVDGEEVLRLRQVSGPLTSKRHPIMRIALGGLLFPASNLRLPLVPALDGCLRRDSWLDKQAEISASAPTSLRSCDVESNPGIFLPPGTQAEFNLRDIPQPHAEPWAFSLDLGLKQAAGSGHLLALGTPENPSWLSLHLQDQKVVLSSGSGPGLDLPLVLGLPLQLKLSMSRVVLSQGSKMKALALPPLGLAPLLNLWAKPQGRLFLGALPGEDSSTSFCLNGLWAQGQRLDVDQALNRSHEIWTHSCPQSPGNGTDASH

albumin = albumin (Homo sapiens, UniProt P02768); settings: serum, men; cited from earlier work
albumin, sequence (P02768 25-609): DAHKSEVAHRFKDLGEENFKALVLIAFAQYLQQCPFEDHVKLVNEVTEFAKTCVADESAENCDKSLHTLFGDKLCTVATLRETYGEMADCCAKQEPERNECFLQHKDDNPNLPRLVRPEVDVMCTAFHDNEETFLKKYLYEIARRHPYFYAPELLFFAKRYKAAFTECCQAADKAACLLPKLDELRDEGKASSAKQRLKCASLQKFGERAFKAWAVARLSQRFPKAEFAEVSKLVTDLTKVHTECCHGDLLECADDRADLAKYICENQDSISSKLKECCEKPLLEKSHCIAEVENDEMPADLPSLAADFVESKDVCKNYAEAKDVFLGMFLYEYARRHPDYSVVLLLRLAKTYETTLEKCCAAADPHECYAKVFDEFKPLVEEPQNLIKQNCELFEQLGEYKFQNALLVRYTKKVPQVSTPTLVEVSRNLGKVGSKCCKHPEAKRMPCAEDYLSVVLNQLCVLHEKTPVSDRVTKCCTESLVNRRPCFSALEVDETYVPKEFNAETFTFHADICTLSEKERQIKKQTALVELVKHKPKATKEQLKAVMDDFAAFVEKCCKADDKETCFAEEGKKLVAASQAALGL

LNCaP cells = assay: In vitro growth proliferation study of LNCaP cells, calcein fluorescence assay; type: cell-based, human; settings: nilutamide 0.1 μM, 5 days (120 hours), mean of six wells
Description: A human hormone sensitive prostate cancer cell line, LNCaP1 was exposed to the AR-LBD-IgG1 FC fusion protein as described in Example 1. The effects of the polypeptide on the growth and proliferation of the cells was then assessed.
In addition, LNCaP cells were also cultured in the presence of the non-steroidal antiandrogen nilutamide
The human prostate cancer cell line, LNCaP was obtained from American Type Tissue Collection (ATCC) and was routinely cultured in growth medium containing phenol red RPM1 1640 (Invitrogen, Auckland, New Zealand) supplemented with 10% fetal bovine serum (FBS1 G1BCO) and 1% antibiotic/antimycotic miyture (Invitrogen, Auckland, New Zealand). Cells were maintained at 37° C. in 5% CO2.
2×10^3 LNCaP cells were plated per well in a Falcon 96-well plate in 5% CO2/37° C. in growth medium in growth medium containing phenol red RPMI 1640 (Invitrogen, Auckland, New Zealand) supplemented with 10% fetal bovine serum (FBS, G1BCO) and 1% antibiotic/antimycotic mixture (Invitrogen, Auckland, New Zealand). Cells were treated with either AR-LBD IgG1 Fc fusion protein (12 ng/ml ) or IgG1 Fc control protein (12 ng/ml). […] Calcein positive cells were detected using a FLUOstar OPTIMA plate reader (BMG Labtech, Victoria, Australia). […]

SMILES	effect of androgen on secreted PSA [1]	effect of androgen on secreted PSA [2]	association constant (Ka) with SHBG [3]	association constant (Ka) with albumin (albumin)	reduction of prostate cancer cell proliferation (LNCaP cells)
C[C@]12CCC(=O)C[C@@H]1CC[C@@H]1[C@@H]2CC[C@]2(C)[C@@H](O)CC[C@@H]12 [DHT, dihydrotestosterone]	significantly boost production of secreted PSA	strongly boost production of secreted PSA			
C[C@]12CC[C@H]3[C@@H](CCC4=CC(=O)CC[C@@]43C)[C@@H]1CC[C@@H]2O [Testosterone, testosterone]		clearly increase production of PSA	about 1×10^9 L/mol	about 3×10^4 L/mol	
CC1(C)NC(=O)N(c2ccc([N+](=O)[O-])c(C(F)(F)F)c2)C1=O [nilutamide]					80%
